# How the values were obtained:
# ARPE-19 cells [1] = test: EMT and Smad phosphorylation in ARPE-19 cells; type: cell-based, human
# Text: (§1) The ARPE-19 human RPE cell line (ATCC # CRL-2302) (Dunn, K. C. et al. 1996 Exp Eye Res 62:155-169) was used to assess effects of […] TGF-β2 on expression of αSMA and Smad3 activation as previously described (EXAMPLE 1). Effect of addition of TGF-β2 on ARPE-19 cell migration was examined by using a model of in vitro closure of a monolayer cell sheet as previously reported (Saika, S. et al. 1995 Graefes Arch Clin Exp Ophthalmol 233:347-353).
# ARPE-19 cells [2] = test: Proliferation of ARPE-19 cells (MTT assay); type: cell-based, human; conditions: sparse cultures, up to 120 hr; PDGF-BB 5 ng/ml, TGF-β2 1 ng/ml
# Method: Effects of adding TGF-β2, PDGF-BB, and/or anti-PDGF-B-neutralizing antibody on proliferation of ARPE-19 cells were assessed using the MTT assay (TACS MTT Cell Proliferation Assay Kit, Trevigen, Gaithersburg, Md., USA) according to manufacturer's instruction. ARPE 19 cells suspended in DMEM/F-12 supplemented with 15% fetal calf serum (2×10^4/100 μl/well) were seeded in 96-well culture plates (8 wells for each condition). After 12 hrs cells were changed to 100 μl serum-free culture medium and cultured for an additional 120 hr supplemented with PDGF-BB (5.0 ng/ml) or TGF-β2 (1.0 ng/ml), with either neutralizing anti-PDGF-B antibody (20 μg/ml) or non-immune IgG (20 μg/ml) as control. At the end of each culture interval, MTT reagent (10 μl) was added to each well and the incubation continued for an additional 5 hr at 37° C. Optical density at 570 nm was measured 4 hr after adding the lysis solution contained in the kit.
# lens epithelium = test: Organ-culture of mouse lenses with TGF-β2; type: cell-based; conditions: TGF-β2 10 ng/ml, not KO
# Method: The crystalline lens was carefully removed from enucleated eyes of adult Smad3-KO or WT mice and processed for organ-culture as previously described (Saika, S. et al. 2003 Invest Ophthalmol Vis Sci 44: 2094-2102). Three lenses were used in each culture condition. The lens was incubated in DMEM supplemented with antibiotics in the presence and absence of porcine TGF-β2 (10 ng/ml) with a medium change every 2 days. After 5 or 10 days of culture, the tissue was fixed in 2.0% paraformaldehyde as described above. Paraffin sections were processed for histology and immunohistochemistry.
# Sections (5 μm) were deparaffinized and stained with hematoxylin and eosin (HE) alone or with polyclonal antibodies against collagen types I and V (both 1:100 dilution in PBS, Southern Biotechnology, Birmingham, Ala.), rabbit polyclonal anti-lumican antibody (10 μg/ml)(Saika, S. et al. 2000 J Biol Chem 275: 2607-2612), or with a mouse monoclonal anti-αSMA antibody (1:100 dilution in PBS, NeoMarker, Fremont, Calif., USA), rabbit polyclonal antibodies against the TGF-β isoforms as previously reported (Flanders, K. C. et al. 1991 Development 113: 183-191), or with non-immune IgG (control). After binding of labeled secondary antibody and the color reaction with 3,3′-diaminobenzidine, sections were counterstained with methyl green and mounted in balsam. […]
# [3] = system: primary porcine RPE cells; test: EMT in primary cultures of porcine RPE cells (αSMA immunostaining); type: cell-based; conditions: TGF-β2 10 ng/ml, 48 hr; not in its absence
# Method: Cultures of primary porcine RPE cells were prepared by aspirating RPE layers from a hemi-sectioned pig eye after removing the retina by using a micropipette, and putting the aspirate in a 30-mm diameter collagen-coated plastic culture dish to allow the epithelial cells to outgrow. After reaching confluence, the cells were trypsinized, suspended in Dulbecco's modified Eagle's essential medium (DMEM) supplemented with 10% fetal calf serum, and seeded on fibronectin-coated chamber slides (Falcon, Becton Dickinson, Lincoln Park, N.J.) in the presence and absence of 10 ng/ml of porcine TGF-β2 (R & D systems Inc., Minneapolis, Minn.). At 24 hr culture intervals the cells were fixed and immunostained for αSMA.
# ARPE-19 cells [4] = test: Production of PDGF, TGF-β1 and collagen type I in ARPE-19 cells treated with TGF-β2; type: cell-based, human
# Method: Expression of PDGF-BB in ARPE-19 cells was assessed by western blot of cell lysates using PDGF-B (H-55, Santa Cruz Biotechnology, Inc.). Enzyme-linked immunosorbent assays (ELISAs) for PDGF-BB, PDGF-AB and TGF-β1 (R & D Systems, Inc., Minneapolis, Minn.) were used to determine the concentration of each peptide in the culture medium. ARPE-19 cells were grown in 6-well plates to near confluence and then cultured in 500 μl of serum-free DMEM/F-12 supplemented with antibiotics in the presence or absence of human recombinant TGF-β2 (1.0 ng/ml R & D Systems, Inc., Minneapolis, Minn.) for 48 or 96 hrs. Nine wells were prepared for each culture condition. Medium was processed for ELISAs for determination of the concentration of PDGF-BB and -AB according to the manufacturers' protocols. Medium (48 hr) was also processed for the determination of TGF-β1 by an ELISA kit (R & D Systems, Minneapolis, Minn.). Type I collagen was quantified in medium and sonicated cell lysates (48 hr) and processed for an ELISA system for type I collagen C-terminal peptide (PIP ELISA kit, Takara, Tokyo, Japan). Confluent cells grown on a chamber slides (Nunc) were immunostained for collagen type I (1:100 dilution in PBS, Southern Biotechnology).
# ARPE-19 cells [5] = test: ARPE-19 cell migration, in vitro closure of a defect in a monolayer cell sheet; type: cell-based, human; conditions: TGF-β2 1.0 ng/ml; 24 hrs for the untreated culture
# Text: as §1
# RPE cells = test: Wounding of the RPE cell layer in organ-cultured mouse globes; type: cell-based; conditions: TGF-β2 10 ng/ml, WT posterior segments; KO negative
# Method: Both eyes were enucleated immediately after being sacrificed as described above. Anterior eye segment structures (cornea and lens) and retina were carefully removed from the globe. After the RPE cell layer had been wounded by scraping using a silicone needle, the tissue was cultured in Eagle's medium supplemented with 10% fetal calf serum in the presence or absence of human recombinant TGF-β2 at 10 ng/ml for 48 hr. The tissue was fixed and embedded in paraffin as previously described (Example 1).
# Sections (5 μm) were deparaffinized and stained with hematoxylin and eosin (HE) alone or with polyclonal antibodies against collagen type VI (1:100 dilution in PBS, Southern Biotechnology, Birmingham, Ala.), rabbit polyclonal anti-lumican antibody (10 μg/ml (Saika, S. et al. 2000 J Biol Chem 275:2607-2612)), mouse monoclonal anti-αSMA antibody (1:100 dilution in PBS, NeoMarker, Fremont, Calif., USA), goat polyclonal anti-PDGF-B antibody (1:200 dilution in PBS, Santa Cruz), mouse monoclonal anti-proliferating cell nuclear antigen (PCNA) antibody (1:100 dilution in PBS, Santa Cruz) or with non-immune IgGs (control). After binding of FITC-labeled secondary antibodies (1:100 dilution in PBS, Cappel ICN, Aurora, Ohio, USA), the specimens were observed under fluorescent microscopy followed by mounted with VectaShield with nuclear DAPI staining. […]
substance,measurement,setting,value
TGF-β2: exogenous TGF-β2 growth factor; porcine or human recombinant depending on experiment,αSMA expression,ARPE-19 cells [1]; TGF-β2 for 72 hr,clusters of αSMA positive cells
same,time of highest level of nuclear translocation of Smad3 after addition of TGF-β2,"ARPE-19 cells [1]; immunofluorescence, no longer detectable at 24 hr",1 h
same,time to phosphorylation of Smads2/3 after TGF-β2 exposure (Western blotting),ARPE-19 cells [1]; remained activated up to 48 hrs,≤ 30 min
same,growth of the cells (MTT assay),ARPE-19 cells [2],inhibited
same,"lens epithelium morphology and EMT markers (lumican, αSMA, collagen type I)","lens epithelium; 10 days, WT lenses",multilayer of cells of a fibroblastic morphology
same,expression of lumican,"lens epithelium; day 5, WT lenses",up-regulated expression of lumican
same,αSMA expression,[3],express αSMA
same,amount of type I collagen in culture medium and cell lysate (ELISA),ARPE-19 cells [4]; 48 hr,increase
same,PDGF-AB production (ELISA),ARPE-19 cells [4]; TGF-β2 1.0 ng/ml,significantly increased
same,concentration of PDGF-BB in culture medium (ELISA),"ARPE-19 cells [4]; TGF-β2 1.0 ng/ml, 96 hrs",approximately 500 pg/ml
same,PDGF-B protein expression (Western blotting),"ARPE-19 cells [4]; TGF-β2 1.0 ng/ml, beginning about 48-72 hrs after addition",time-dependent up-regulation
same,"PDGF-BB protein secreted into the culture medium, increase above control cultures (ELISA)","ARPE-19 cells [4]; TGF-β2 1.0 ng/ml, confluent cultures",over 2 fold
same,expression of TGF-β1 in medium (ELISA),"ARPE-19 cells [4]; exogenous TGF-β2, 48 hr",significant increase
same,time to closure of the defect in wounded monolayer,ARPE-19 cells [5],≤ 12 h
same,αSMA expression in wounded pigment epithelium,RPE cells,expresses αSMA faintly at 24 hr and then clearly at 48 hr

# Source: patent US20060040253A1, “Use of Smad3 inhibitor in the treatment of fibrosis dependent on epithelial to mesenchymal transition as in the eye and kidney” (priority 2003, published 2006)
